Literature values as cited in US20260373126A1, “COMPOSITIONS AND METHODS OF TREATING CANCER” (Board of Supervisors of Louisiana State University and …, priority 2022, published 2026).

Test system: mitochondrial respiration
Details: reference 2

Question: With `CC(C)OC(=O)C(C)(C)Oc1ccc(C(=O)c2ccc(Cl)cc2)cc1` [FF, Fenofibrate] as the compound, how does the mitochondrial respiration read?
Answer: blocked mitochondrial respiration
